Experimental data from patent publication US10934274B2, “Quinoline derivatives as TAM RTK inhibitors” (Qurient Co., Ltd., priority 2015, dated 2021).

What was measured:
Axl = biological target: T1, Axl (Homo sapiens, UniProt P30530); assay: LanthaScreen Eu kinase binding assay, Axl; settings: Tracer 236
T1 construct: purchased Life Technologies
T1 sequence (P30530 26-894): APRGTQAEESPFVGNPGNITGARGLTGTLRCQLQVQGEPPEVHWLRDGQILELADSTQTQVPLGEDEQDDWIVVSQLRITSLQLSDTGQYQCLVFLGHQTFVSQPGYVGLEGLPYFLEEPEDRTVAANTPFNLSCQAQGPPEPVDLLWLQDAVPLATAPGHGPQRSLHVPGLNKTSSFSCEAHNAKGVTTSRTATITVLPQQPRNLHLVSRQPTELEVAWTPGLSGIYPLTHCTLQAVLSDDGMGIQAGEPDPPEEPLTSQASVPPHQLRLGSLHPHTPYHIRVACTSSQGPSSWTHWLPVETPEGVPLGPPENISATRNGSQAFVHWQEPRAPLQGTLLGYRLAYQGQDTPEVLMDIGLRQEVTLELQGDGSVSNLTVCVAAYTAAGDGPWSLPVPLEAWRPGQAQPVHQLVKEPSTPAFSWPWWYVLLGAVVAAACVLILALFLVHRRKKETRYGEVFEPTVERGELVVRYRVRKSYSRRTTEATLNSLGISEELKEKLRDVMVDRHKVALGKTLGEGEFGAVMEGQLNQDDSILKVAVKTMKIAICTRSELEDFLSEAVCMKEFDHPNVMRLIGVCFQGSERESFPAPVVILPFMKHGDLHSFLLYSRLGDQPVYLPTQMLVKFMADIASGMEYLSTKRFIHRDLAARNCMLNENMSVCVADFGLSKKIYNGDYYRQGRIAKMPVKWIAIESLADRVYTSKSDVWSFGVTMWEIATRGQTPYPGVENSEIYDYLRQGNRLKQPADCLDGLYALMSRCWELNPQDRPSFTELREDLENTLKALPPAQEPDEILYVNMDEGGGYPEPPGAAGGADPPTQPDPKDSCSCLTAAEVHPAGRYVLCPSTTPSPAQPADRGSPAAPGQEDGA

Mer = biological target: T2, Mer (Homo sapiens, UniProt Q12866); assay: LanthaScreen Eu kinase binding assay, Mer; settings: Tracer 236
T2 construct: purchased Life Technologies
T2 sequence (Q12866 21-999): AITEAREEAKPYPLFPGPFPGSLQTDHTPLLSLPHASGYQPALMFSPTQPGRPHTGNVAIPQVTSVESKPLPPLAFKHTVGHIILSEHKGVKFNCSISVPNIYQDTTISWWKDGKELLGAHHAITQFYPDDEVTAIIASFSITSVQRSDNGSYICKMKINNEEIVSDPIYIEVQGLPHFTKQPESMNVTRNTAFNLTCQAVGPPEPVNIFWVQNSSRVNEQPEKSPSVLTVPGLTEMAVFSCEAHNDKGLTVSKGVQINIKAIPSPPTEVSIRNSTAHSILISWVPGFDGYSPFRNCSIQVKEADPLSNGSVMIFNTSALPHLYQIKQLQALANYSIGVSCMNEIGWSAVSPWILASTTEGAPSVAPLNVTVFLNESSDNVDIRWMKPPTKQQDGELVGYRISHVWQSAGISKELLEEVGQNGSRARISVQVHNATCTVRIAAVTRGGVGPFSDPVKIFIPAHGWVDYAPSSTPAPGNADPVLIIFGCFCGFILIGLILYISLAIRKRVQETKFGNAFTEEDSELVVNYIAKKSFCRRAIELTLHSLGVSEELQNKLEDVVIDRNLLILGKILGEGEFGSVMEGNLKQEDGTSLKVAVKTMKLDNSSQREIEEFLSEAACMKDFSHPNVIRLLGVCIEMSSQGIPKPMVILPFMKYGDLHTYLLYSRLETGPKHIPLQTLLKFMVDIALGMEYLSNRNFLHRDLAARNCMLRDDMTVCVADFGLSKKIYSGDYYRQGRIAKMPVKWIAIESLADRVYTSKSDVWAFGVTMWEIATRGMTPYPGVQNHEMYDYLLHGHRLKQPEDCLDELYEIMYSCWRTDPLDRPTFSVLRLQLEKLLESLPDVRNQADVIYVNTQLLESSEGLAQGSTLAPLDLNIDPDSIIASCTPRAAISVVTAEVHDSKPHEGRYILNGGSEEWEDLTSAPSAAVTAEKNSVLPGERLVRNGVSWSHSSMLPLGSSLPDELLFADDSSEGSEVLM

Row | SMILES | Kd (Axl) [nM] | Kd (Mer) [nM]
1 | CCOc1cn(-c2ccc(N)nc2)nc1C(=O)Nc1ccc(Oc2ccnc3cc(OC)c(OC)cc23)cn1 [Compound 6] | < 100 | < 100
2 | CCOc1cn(-c2ccnc(O)c2)nc1C(=O)Nc1ccc(Oc2ccnc3cc(OC)c(OC)cc23)cn1 [Compound 7] | ≥ 1000 | < 100
3 | CCOc1cn(-c2cn[nH]c2)nc1C(=O)Nc1ccc(Oc2ccnc3cc(OC)c(OC)cc23)cn1 [Compound 8] | < 100 | < 100
4 | CCOc1cn(-c2cnc(N)nc2)nc1C(=O)Nc1ccc(Oc2ccnc3cc(OC)c(OC)cc23)cn1 [Compound 10] | < 100 | < 100
5 | CCOc1cn(-c2cncn2C)nc1C(=O)Nc1ccc(Oc2ccnc3cc(OC)c(OC)cc23)cn1 [Compound 11] | < 100 | < 100
6 | CCOc1cn(-c2nccs2)nc1C(=O)Nc1ccc(Oc2ccnc3cc(OC)c(OC)cc23)cn1 [Compound 12] | < 100 | < 100
7 | CCOc1cn(-c2cscn2)nc1C(=O)Nc1ccc(Oc2ccnc3cc(OC)c(OC)cc23)cn1 [Compound 13] | < 100 | < 100
8 | CCOc1cn(-c2cncs2)nc1C(=O)Nc1ccc(Oc2ccnc3cc(OC)c(OC)cc23)cn1 [Compound 14] | < 100 | < 100
9 | CCOc1cnn(-c2cncs2)c1C(=O)Nc1ccc(Oc2ccnc3cc(OC)c(OC)cc23)cn1 [Compound 16] | < 100 | < 100
10 | CCOc1cn(-c2cnc(CO)nc2)nc1C(=O)Nc1ccc(Oc2ccnc3cc(OC)c(OC)cc23)cn1 [Compound 96] | < 100 | < 100
11 | CCOc1cn(-c2ccc(F)cc2C)nc1C(=O)Nc1ccc(Oc2ccnc3cc(OC)c(OC)cc23)nn1 [Compound 97] | < 100 | < 100
12 | CCOc1cn(-c2ccc(C(F)(F)F)cc2C)nc1C(=O)Nc1ccc(Oc2ccnc3cc(OC)c(OC)cc23)cn1 [Compound 99] | < 100 | < 100
13 | CCOc1cn(-c2ccc(C)cc2F)nc1C(=O)Nc1ccc(Oc2ccnc3cc(OC)c(OC)cc23)cn1 [Compound 100] | < 100 | < 100
14 | CCOc1cn(-c2ccc(Cl)cc2C(F)(F)F)nc1C(=O)Nc1ccc(Oc2ccnc3cc(OC)c(OC)cc23)cn1 [Compound 101] | < 100 | < 100
15 | CCOc1cnn(-c2ccc(C(F)(F)F)cc2C)c1C(=O)Nc1ccc(Oc2ccnc3cc(OC)c(OC)cc23)cn1 [Compound 102] | < 100 | 100 to 1000
16 | CCOc1cn(-c2ccc(F)cc2C(F)(F)F)nc1C(=O)Nc1ccc(Oc2ccnc3cc(OC)c(OC)cc23)cn1 [Compound 104] | < 100 | < 100
17 | CCOc1cn(-c2ccc(C(F)(F)F)cc2C(F)(F)F)nc1C(=O)Nc1ccc(Oc2ccnc3cc(OC)c(OC)cc23)cn1 [Compound 105] | < 100 | < 100
18 | CCOc1cn(-c2ccc(Cl)cc2F)nc1C(=O)Nc1ccc(Oc2ccnc3cc(OC)c(OC)cc23)cn1 [Compound 106] | < 100 | < 100
19 | CCOc1cn(-c2ccc(F)cc2F)nc1C(=O)Nc1ccc(Oc2ccnc3cc(OC)c(OC)cc23)cn1 [Compound 107] | < 100 | < 100
20 | CCOc1cn(-c2ccc(Cl)cc2Cl)nc1C(=O)Nc1ccc(Oc2ccnc3cc(OC)c(OC)cc23)cn1 [Compound 108] | < 100 | < 100
21 | CCOc1cnn(-c2ccc(C(F)(F)F)cc2C(F)(F)F)c1C(=O)Nc1ccc(Oc2ccnc3cc(OC)c(OC)cc23)cn1 [Compound 110] | < 100 | 100 to 1000
22 | CCOc1cn(-c2ccc(Cl)cc2CC)nc1C(=O)Nc1ccc(Oc2ccnc3cc(OC)c(OC)cc23)cn1 [Compound 111] | < 100 | < 100

Row | SMILES | Kd (Axl) [nM] | Kd (Mer) [nM]
23 | CCOc1cn(-c2ccc(F)cc2CC)nc1C(=O)Nc1ccc(Oc2ccnc3cc(OC)c(OC)cc23)cn1 [Compound 112] | < 100 | < 100
24 | CCOc1cn(-c2ccc(OC(F)(F)F)cc2C)nc1C(=O)Nc1ccc(Oc2ccnc3cc(OC)c(OC)cc23)cn1 [Compound 113] | < 100 | < 100
25 | CCOc1cn(-c2ccc(C(F)(F)F)cc2F)nc1C(=O)Nc1ccc(Oc2ccnc3cc(OC)c(OC)cc23)cn1 [Compound 114] | < 100 | < 100
26 | CCOc1cn(-c2ccc(OC(F)(F)F)cc2Cl)nc1C(=O)Nc1ccc(Oc2ccnc3cc(OC)c(OC)cc23)cn1 [Compound 115] | < 100 | < 100
27 | CCOc1cn(-c2ccc(C(C)C)cc2)nc1C(=O)Nc1ccc(Oc2ccnc3cc(OC)c(OC)cc23)cn1 [Compound 116] | < 100 | < 100
28 | CCOc1cn(-c2c(C)cc(C)cc2C)nc1C(=O)Nc1ccc(Oc2ccnc3cc(OC)c(OC)cc23)cn1 [Compound 117] | < 100 | < 100
29 | CCOc1cn(-c2ccc(OC(F)(F)F)cc2F)nc1C(=O)Nc1ccc(Oc2ccnc3cc(OC)c(OC)cc23)cn1 [Compound 120] | < 100 | < 100
30 | CCOc1cn(-c2ccc(F)c(CN(C)C)c2)nc1C(=O)Nc1ccc(Oc2ccnc3cc(OC)c(OC)cc23)cn1 [Compound 124] | < 100 | < 100
31 | CCOc1cn(-c2ccc(F)cc2C(C)C)nc1C(=O)Nc1ccc(Oc2ccnc3cc(OC)c(OC)cc23)cn1 [Compound 125] | < 100 | < 100
32 | CCOc1cn(-c2ccc(Cl)c(CN(C)C)c2)nc1C(=O)Nc1ccc(Oc2ccnc3cc(OC)c(OC)cc23)cn1 [Compound 126] | < 100 | < 100
33 | CCOc1cn(-c2ccc(C(C)C)cc2F)nc1C(=O)Nc1ccc(Oc2ccnc3cc(OC)c(OC)cc23)cn1 [Compound 127] | < 100 | < 100
34 | CCOc1cn(-c2ccc(F)c(CO)c2)nc1C(=O)Nc1ccc(Oc2ccnc3cc(OC)c(OC)cc23)cn1 [Compound 128] | < 100 | < 100
35 | CCOc1cn(-c2ccc(Cl)c(C(=O)N(C)C)c2)nc1C(=O)Nc1ccc(Oc2ccnc3cc(OC)c(OC)cc23)cn1 [Compound 129] | < 100 | < 100
36 | CCOc1cnn(-c2ccc(Cl)c(CN(C)C)c2)c1C(=O)Nc1ccc(Oc2ccnc3cc(OC)c(OC)cc23)cn1 [Compound 130] | < 100 | < 100
37 | CCOc1cn(-c2ncc(Cl)cc2C#N)nc1C(=O)Nc1ccc(Oc2ccnc3cc(OC)c(OC)cc23)cn1 [Compound 133] | < 100 | < 100
38 | CCOc1cn(-c2cnc(N)nc2)nc1C(=O)Nc1ccc(Oc2ccnc3cc(OC)c(OC)cc23)c(F)c1 [Compound 141] | < 100 | < 100
39 | CCOc1cn(-c2cnc(OC)nc2)nc1C(=O)Nc1ccc(Oc2ccnc3cc(OC)c(OC)cc23)cn1 [Compound 148] | < 100 | < 100
40 | CCOc1cn(-c2cnccc2C)nc1C(=O)Nc1ccc(Oc2ccnc3cc(OC)c(OC)cc23)cc1F [Compound 151] | < 100 | < 100
41 | CCOc1cn(-c2cnc(C)cn2)nc1C(=O)Nc1ccc(Oc2ccnc3cc(OC)c(OC)cc23)cn1 [Compound 160] | < 100 | < 100
42 | CCOc1cn(-c2noc(C)n2)nc1C(=O)Nc1ccc(Oc2ccnc3cc(OC)c(OC)cc23)cn1 [Compound 161] | < 100 | < 100
43 | CCOc1cn(-c2nccnc2C(F)(F)F)nc1C(=O)Nc1ccc(Oc2ccnc3cc(OC)c(OC)cc23)cn1 [Compound 162] | < 100 | < 100
